Laboratory results reported in patent publication US20150299219A1, “BICYCLIC PYRAZOLONE COMPOUNDS AND METHODS OF USE” (Calitor Sciences, LLC, priority 2014, published 2015).

Assays:
c-Met (h) = biological target: T1, c-Met (h) (Homo sapiens, UniProt P08581); assay: c-Met (h) kinase assay; type: biochemical
T1 construct: purchased Millipore UK Ltd
Procedure: Kinase assays can be performed by measurement of incorporation of γ-^33P ATP into immobilized myelin basic protein (MBP). High binding white 384 well plates (Greiner) are coated with MBP (Sigma #M-1891) by incubation of 60 μL/well of 20 μg/mL MBP in Tris-buffered saline (TBS; 50 mM Tris pH 8.0, 138 mM NaCl, 2.7 mM KCl) for 24 h at 4° C. Plates are washed 3× with 100 μL TBS. Kinase reactions are carried out in a total volume of 34 μL in kinase buffer (5 mM Hepes pH 7.6, 15 mM NaCl, 0.01% bovine gamma globulin (Sigma #I-5506), 10 mM MgCl2, 1 mM DTT, 0.02% TritonX-100). Compound dilutions are performed in DMSO and added to assay wells to a final DMSO concentration of 1%. Each data point is measured in duplicate, and at least two duplicate assays are performed for each individual compound determination. Enzyme is added to final concentrations of 10 nM or 20 nM, for example. A mixture of unlabeled ATP and γ-^33P ATP is added to start the reaction (2×10^6 cpm of γ-^33P ATP per well (3000 Ci/mmole) and 10 μM unlabeled ATP, typically. The reactions are carried out for 1 h at room temperature with shaking. Plates are washed 7× with TBS, followed by the addition of 50 μL/well scintillation fluid (Wallac). Plates are read using a Wallac Trilux counter. This is only one format of such assays; various other formats are possible, as known to one skilled in the art.
The above assay procedure can be used to determine the IC50 for inhibition and/or the inhibition constant, Ki. The IC50 is defined as the concentration of compound required to reduce the enzyme activity by 50% under the condition of the assay. The IC50 value is estimated by preparing a 10 point curve using a 1/2 log dilution series (for example, a typical curve may be prepared using the following compound concentrations: 10 μM, 3 μM, 1 μM, 0.3 μM, 0.1 μM, 0.03 μM, 0.01 μM, 0.003 μM, 0.001 μM and 0 μM).
Met (h) is incubated with 8 mM MOPS pH 7.0, 0.2 mM EDTA, 250 μM KKKSPGEYVNIEFG, 10 mM MgAcetate and [γ-^33P-ATP] (specific activity approx. 500 cpm/pmol, concentration as required). The reaction is initiated by the addition of the MgATP mix. After incubation for 40 minutes at room temperature, the reaction is stopped by the addition of 3% phosphoric acid solution. 10 μL of the reaction is then spotted onto a P30 filtermat and washed three times for 5 minutes in 75 mM phosphoric acid and once in methanol prior to drying and scintillation counting.
The kinase assays described herein were performed at Millipore UK Ltd, Dundee Technology Park, Dundee DD2 1SW, UK.

[1] = Compound stability in human liver microsomes; type: in vitro ADME; settings: for half-life: pH 7.4, 0.5 mg protein/mL; for half-life / T1/2: NADPH, 37° C.; for CLint scaled: pH 7.4, in vivo CLint extrapolated; for T1/2: 0.5 mg protein/mL
Procedure: Human or rat liver microsomes incubations were conducted in duplicate in polypropylene tubes. The typical incubation mixtures consisted of human or rat liver microsomes (0.5 mg protein/mL), compounds of interest (5 μM) and NADPH (1.0 mM) in a total volume of 200 μL potassium phosphate buffer (PBS, 100 mM, pH 7.4). Compounds were dissolved in DMSO and diluted with PBS such that the final concentration of DMSO was 0.05%. The enzymatic reactions were commenced with the addition of protein after a 3-min preincubation and incubated in a water bath open to the air at 37° C. Reactions were terminated at various time points (0, 5, 10, 15, 30, 60 min) by adding equal volume of ice-cold acetonitrile. The samples were stored at −80° C. until LC/MS/MS assays.
The concentrations of compounds in the incubation mixtures of human or rat liver microsomes were determined by a LC/MS/MS method. The ranges of the linearity in the concentration range were determined for each tested compounds.
A parallel incubation was performed using denatured microsomes as the negative control, and reactions were terminated at various time points (0, 15, 60 min) after incubation at 37° C.
Dextromethorphan (70 μM) was selected as the positive control, and reactions were terminated at various time points (0, 5, 10, 15, 30, 60 min) after incubation at 37° C. Both positive and negative control samples were included in each assay to ensure the integrity of the microsomal incubation system.
Alternatively, the stability of some of the compounds disclosed herein in human (or rat) liver microsomes were also conducted in the following protocol. The incubations were conducted in duplicate in polypropylene tubes. The typical incubation mixtures consisted of liver microsomes (final concentration: 0.5 mg protein/mL), compounds (final concentration: 1.5 μM) in a total volume of 30 μL K-buffer (contain 1.0 mM EDTA, 100 mM, pH7.4). Compounds were dissolved in DMSO and diluted with K-buffer such that the final concentration of DMSO was 0.2%. The enzymatic reactions were commenced with the addition of 15 μL of NADPH (final concentration: 2 mM) after 10 min preincubation and incubated in a 37° C. incubator. Reactions were terminated at various time points (0, 15, 30, 60 min) by adding 135 μL acetonitrile (contain IS). Protein is removed by centrifugation with 4000 rpm, 10 min. Supernatant was collected for LCMS/MS analysis
In the above protocol, ketanserin (1 μM) was selected as the positive control, and reactions were terminated at various time points (0, 15, 30, 60 min) after incubation at 37° C. The positive control sample was included in each assay to ensure the integrity of the microsomal incubation system.
The concentrations of compounds in human or rat liver microsome incubations were plotted as a percentage of the relevant zero time point control for each reaction. The in vivo CLint were extrapolated (ref: Naritomi, Y.; Terashita, S.; Kimura, S.; Suzuki, A.; Kagayama, A.; and Sugiyama, Y.; Prediction of human hepatic clearance from in vivo animal experiments and in vitro metabolic studies with liver microsomes from animals and humans. Drug Metab. Dispos., 2001, 29: 1316-1324).

T1 sequence (P08581 25-1390): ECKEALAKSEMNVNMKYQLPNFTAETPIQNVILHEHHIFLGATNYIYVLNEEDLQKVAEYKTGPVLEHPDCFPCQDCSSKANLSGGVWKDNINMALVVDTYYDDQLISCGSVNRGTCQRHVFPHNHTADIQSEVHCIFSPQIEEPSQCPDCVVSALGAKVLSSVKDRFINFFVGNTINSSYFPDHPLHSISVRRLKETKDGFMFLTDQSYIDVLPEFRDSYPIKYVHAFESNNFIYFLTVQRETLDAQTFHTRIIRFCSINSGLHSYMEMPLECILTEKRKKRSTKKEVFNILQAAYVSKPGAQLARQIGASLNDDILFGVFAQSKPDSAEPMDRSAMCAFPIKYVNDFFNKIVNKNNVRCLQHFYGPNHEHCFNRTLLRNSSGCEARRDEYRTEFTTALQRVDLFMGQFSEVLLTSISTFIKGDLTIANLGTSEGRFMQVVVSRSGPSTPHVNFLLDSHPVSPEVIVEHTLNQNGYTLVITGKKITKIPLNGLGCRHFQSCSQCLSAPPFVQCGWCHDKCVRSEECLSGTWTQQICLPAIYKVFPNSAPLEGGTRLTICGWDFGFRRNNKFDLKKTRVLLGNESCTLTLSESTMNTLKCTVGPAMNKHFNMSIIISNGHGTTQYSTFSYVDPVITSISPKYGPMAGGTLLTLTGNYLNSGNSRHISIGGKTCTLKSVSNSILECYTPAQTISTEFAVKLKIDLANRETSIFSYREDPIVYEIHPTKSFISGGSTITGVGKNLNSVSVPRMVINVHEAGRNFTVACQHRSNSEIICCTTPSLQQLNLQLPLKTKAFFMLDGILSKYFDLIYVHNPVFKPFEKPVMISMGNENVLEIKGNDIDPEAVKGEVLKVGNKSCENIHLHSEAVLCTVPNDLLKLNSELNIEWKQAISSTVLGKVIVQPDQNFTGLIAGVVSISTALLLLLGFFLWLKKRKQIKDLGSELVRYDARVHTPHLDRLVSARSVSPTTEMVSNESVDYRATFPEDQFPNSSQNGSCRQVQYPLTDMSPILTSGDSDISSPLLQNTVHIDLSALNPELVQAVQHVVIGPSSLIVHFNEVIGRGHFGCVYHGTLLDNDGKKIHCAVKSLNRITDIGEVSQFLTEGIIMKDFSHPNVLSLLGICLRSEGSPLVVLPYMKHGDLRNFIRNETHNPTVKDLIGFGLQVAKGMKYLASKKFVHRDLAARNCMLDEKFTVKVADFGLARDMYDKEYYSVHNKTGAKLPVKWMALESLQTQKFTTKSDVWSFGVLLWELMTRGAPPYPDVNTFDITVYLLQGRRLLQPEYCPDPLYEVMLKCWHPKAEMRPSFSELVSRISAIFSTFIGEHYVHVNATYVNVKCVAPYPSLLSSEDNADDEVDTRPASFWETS

Structure (SMILES)	IC50 (c-Met (h)) [nM]	half-life [1] [h]	CLint scaled [1] [mL/min/kg]	T1/2 [1]
CC(=O)Nc1cc(Oc2ccc(NC(=O)c3c4n(n(-c5ccccc5)c3=O)CCC4)cc2)ccn1 [Ex. 3, N-(4-((2-acetamidopyridin-4-yl)oxy)phenyl)-2-oxo-1-phenyl-2,4,5,6-tetrahydro-1H-pyrrolo[1,2-b]pyrazole-3-carboxamide]	100	32.2	0.9	–
O=C(Nc1ccc(Oc2ccnc(NC(=O)C3CC3)c2)cn1)c1c2n(n(-c3ccccc3)c1=O)CCC2 [Ex. 14, N-(5-((2-(cyclopropanecarboxamido)pyridin-4-yl)oxy)pyridin-2-yl)-2-oxo-1-phenyl-2,4,5,6-tetrahydro-1H-pyrrolo[1,2-b]pyrazole-3-carboxamide]	21	8.47	3.42	–
CC(=O)Nc1cc(Oc2ccc(NC(=O)c3c4n(n(-c5ccccc5)c3=O)CCOC4)nc2)ccn1 [Ex. 12, N-(5-((2-acetamidopyridin-4-yl)oxy)pyridin-2-yl)-2-oxo-1-phenyl-2,4,6,7-tetrahydro-1H-pyrazolo[5,1-c][1,4]oxazine-3-carboxamide]	54	–	–	∞
O=C(Nc1ccc(Oc2ccnc(NC(=O)C3CC3)c2)cc1)c1c2n(n(-c3ccccc3)c1=O)CCC2 [Ex. 2, N-(4-((2-(cyclopropanecarboxamido)pyridin-4-yl)oxy)phenyl)-2-oxo-1-phenyl-2,4,5,6-tetrahydro-1H-pyrrolo[1,2-b]pyrazole-3-carboxamide]	26	4.07	7.13	–
O=C(Nc1ccc(Oc2ccnc(NC(=O)C3CC3)c2)cc1)c1c2n(n(-c3ccccc3)c1=O)CCOC2 [Ex. 19, N-(4-((2-(cyclopropanecarboxamido)pyridin-4-yl)oxy)phenyl)-2-oxo-1-phenyl-2,4,6,7-tetrahydro-1H-pyrazolo[5,1-c][1,4]oxazine-3-carboxamide]	41	–	–	∞
